Source: ChEMBL document CHEMBL1201862, “PubChem BioAssay data set” (2004)
Calls of active or inactive are those of the source.

Columns and labels:
[1] = target: T1, Calpain-2 catalytic subunit (Sus scrofa, UniProt P43367); assay: m-calpain protease blockers, concentration series – biochemical, fluorogenic peptide substrate, dose response (AID 1420); type: functional
T1 sequence (P43367 whole entry): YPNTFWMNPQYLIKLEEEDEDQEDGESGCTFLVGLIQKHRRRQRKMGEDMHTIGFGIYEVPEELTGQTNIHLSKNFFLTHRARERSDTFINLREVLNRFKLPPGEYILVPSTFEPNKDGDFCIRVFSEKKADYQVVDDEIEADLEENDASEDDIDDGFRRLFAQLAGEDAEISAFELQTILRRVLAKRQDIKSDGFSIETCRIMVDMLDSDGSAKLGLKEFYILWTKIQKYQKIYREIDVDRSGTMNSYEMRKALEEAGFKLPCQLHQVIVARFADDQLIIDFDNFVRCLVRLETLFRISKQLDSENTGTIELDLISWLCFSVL

[2] = test system: Streptococcus; assay: GAS UMAA2166 growth inhibition – luminescence, BacTiterGlo, counter-screen for streptokinase expression inhibitor project, dose response (AID 1915); type: functional, organism-based;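 also: potency for reduction of bacterial viability or growth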
[3] = test system: Vero; assay: cells; type: functional; details: Chlorocebus sabaeus
[4] = test system: Streptococcus sp. 'group A'; assay: Streptococcus pyogenes SK(-)GAS viability under kanamycin – luminescence, BacTiterGlo, confirmation, counter-screen for streptokinase expression inhibitor project, dose response (AID 1900); type: functional, organism-based
[5] = microbe, parasite or virus in culture; type: functional; details: Mycobacterium tuberculosis
[6] = target: T2, Ubiquitin-conjugating enzyme E2 N (Homo sapiens, UniProt P61088); type: functional;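 also: Dose-response confirmation in a TR-FRET assay detecting UBC13-driven polyubiquitin chain formation, inhibition measured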
T2 sequence (P61088 whole entry): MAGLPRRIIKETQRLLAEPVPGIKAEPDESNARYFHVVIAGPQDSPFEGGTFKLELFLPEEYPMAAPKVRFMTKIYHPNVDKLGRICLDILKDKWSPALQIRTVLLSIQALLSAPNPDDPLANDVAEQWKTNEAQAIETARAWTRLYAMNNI

[7] = target: T3, Polyadenylate-binding protein 1 (Homo sapiens, UniProt P11940); assay: MLLE binding blockers, Cy5 peptide tracer – biochemical, fluorescence polarization, Cy5-PAM2 peptide, secondary, miRNA deadenylation inhibitor project, dose response (AID 602260); type: functional; details: read-out: IC50_Mean
T3 sequence (P11940 whole entry): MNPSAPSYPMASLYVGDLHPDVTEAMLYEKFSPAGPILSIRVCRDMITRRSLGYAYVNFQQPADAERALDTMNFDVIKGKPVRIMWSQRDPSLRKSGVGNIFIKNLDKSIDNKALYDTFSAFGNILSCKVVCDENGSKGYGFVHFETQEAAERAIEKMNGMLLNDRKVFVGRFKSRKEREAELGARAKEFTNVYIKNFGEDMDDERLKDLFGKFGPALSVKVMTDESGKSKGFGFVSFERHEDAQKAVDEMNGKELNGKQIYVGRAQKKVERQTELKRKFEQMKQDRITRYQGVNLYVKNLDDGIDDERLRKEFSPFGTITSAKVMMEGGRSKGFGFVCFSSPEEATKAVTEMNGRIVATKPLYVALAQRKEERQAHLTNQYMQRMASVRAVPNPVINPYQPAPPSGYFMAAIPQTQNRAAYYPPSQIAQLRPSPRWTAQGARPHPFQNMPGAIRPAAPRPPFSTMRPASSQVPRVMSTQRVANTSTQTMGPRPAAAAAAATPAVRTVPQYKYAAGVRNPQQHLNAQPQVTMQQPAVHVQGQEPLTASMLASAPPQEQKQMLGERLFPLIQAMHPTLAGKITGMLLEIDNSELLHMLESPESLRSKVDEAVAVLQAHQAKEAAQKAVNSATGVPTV

[8] = test system: INS1; assay: INS-1E survival protection against cytokine death – cell-based, luminescence, retest, dose response (AID 449756); type: functional; details: Rattus norvegicus;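 also: cell death triggered by IL-1 beta plus TNF-alpha plus IFN-gamma mixture; protective hits raise ATP signal compared with cytokine alone wells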
[9] = target: T3, Polyadenylate-binding protein 1; assay: MLLE domain peptide-binding blockers, IC50 – biochemical, fluorescence polarization, FITC-PAM2 peptide, dose response (AID 602259); type: functional; details: read-out: IC50_Mean
[10] = loss of viability in HepG2 cells – cell-based, CellTiter-Glo, cherry-picked, cytotoxicity control for Shn3 inhibitor project, dose response (AID 624134); type: functional
[11] = reduction of Shn3 3'UTR-driven luciferase in osteoblasts – cell-based, Clone20 osteoblasts, firefly luciferase, cherry-picked, dose response (AID 624132); type: functional;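 also: firefly luciferase luminescence from reporter carrying the Shn3 3'UTR in osteoblasts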
[12] = non-specific 3'UTR reporter inhibition in Clone20-Shn3RL – cell-based, Renilla luciferase, cherry-picked, counter-screen for Shn3 inhibitor project, dose response (AID 624133); type: functional
[13] = target: T4, Fatty acid synthase (Homo sapiens, UniProt P49327); assay: inhibition of human FAS-TE enzyme activity – biochemical, kinetic fluorescence intensity, dose response (AID 624326); type: functional;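 also: rate of fluorescence rise from hydrolysis of a fluorogenic O-methyl fluorescein ester substrate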
T4 sequence (P49327 whole entry): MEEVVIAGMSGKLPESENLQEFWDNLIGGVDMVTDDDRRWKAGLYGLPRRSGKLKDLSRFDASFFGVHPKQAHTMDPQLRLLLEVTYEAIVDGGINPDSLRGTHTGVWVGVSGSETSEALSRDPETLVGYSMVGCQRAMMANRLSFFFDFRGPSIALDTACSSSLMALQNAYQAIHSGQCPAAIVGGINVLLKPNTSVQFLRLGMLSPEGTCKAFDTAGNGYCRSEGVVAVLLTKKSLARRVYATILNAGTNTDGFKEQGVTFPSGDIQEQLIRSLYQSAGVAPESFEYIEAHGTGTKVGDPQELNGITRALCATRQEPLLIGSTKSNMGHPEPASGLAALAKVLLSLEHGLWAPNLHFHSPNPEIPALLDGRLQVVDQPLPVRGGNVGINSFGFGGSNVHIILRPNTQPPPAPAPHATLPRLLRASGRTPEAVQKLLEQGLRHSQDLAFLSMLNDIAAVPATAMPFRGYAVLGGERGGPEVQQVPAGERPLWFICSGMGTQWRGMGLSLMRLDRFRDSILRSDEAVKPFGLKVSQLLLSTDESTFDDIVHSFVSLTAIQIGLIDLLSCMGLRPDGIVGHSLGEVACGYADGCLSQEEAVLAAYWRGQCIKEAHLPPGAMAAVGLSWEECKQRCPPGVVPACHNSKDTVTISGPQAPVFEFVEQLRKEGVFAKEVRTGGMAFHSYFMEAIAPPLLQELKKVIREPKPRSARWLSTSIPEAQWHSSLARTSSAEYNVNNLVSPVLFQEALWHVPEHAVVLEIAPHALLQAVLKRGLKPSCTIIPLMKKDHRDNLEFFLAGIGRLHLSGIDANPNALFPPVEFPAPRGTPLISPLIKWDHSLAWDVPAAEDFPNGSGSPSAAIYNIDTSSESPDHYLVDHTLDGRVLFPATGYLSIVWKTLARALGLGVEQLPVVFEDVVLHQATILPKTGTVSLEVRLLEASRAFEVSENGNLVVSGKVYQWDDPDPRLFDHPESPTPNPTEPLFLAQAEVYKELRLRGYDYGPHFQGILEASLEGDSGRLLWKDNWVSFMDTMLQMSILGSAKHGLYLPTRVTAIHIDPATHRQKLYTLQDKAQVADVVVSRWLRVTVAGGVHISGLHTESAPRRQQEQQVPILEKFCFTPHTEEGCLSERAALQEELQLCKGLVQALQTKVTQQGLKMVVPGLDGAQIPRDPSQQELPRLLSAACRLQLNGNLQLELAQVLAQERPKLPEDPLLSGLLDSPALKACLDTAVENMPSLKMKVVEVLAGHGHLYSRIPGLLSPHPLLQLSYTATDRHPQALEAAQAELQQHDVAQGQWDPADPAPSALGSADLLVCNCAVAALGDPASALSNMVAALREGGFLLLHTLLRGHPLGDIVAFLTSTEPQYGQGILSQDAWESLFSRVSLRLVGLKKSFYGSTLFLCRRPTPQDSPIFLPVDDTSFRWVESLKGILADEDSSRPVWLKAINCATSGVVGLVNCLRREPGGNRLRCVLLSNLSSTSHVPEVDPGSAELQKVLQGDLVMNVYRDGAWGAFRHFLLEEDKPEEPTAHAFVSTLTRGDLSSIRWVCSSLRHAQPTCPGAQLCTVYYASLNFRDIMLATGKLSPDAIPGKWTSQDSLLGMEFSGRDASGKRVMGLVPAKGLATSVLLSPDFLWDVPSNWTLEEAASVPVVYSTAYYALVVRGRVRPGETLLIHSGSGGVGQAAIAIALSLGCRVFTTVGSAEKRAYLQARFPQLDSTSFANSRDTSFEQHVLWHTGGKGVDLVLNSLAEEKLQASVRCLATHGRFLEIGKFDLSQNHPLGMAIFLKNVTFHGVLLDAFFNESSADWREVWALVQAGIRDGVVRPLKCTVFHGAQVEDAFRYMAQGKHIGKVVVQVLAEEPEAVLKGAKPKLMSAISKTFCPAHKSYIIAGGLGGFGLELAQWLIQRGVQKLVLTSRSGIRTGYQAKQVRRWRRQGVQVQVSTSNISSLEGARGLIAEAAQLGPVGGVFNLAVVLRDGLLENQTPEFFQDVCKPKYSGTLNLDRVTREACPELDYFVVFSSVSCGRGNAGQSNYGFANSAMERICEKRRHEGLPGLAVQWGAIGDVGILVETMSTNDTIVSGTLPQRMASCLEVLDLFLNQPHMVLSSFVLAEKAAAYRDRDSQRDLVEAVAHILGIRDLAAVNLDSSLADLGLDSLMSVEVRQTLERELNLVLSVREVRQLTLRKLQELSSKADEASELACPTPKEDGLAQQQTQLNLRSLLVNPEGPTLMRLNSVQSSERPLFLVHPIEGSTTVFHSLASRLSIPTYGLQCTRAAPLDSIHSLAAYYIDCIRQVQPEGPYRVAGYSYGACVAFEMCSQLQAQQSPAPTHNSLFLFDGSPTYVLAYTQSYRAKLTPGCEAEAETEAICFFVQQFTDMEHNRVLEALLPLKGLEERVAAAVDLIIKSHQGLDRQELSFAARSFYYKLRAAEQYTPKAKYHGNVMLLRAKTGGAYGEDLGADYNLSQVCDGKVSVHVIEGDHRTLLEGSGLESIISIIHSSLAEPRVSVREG

[14] = HEK-293T viability loss after treatment – luminescence, T-cell screen hits, cytotoxicity control for TCR NF-kB inhibitor project, dose response (AID 489026); type: functional, cell-based;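 also: cells exposed to compound about 14 hours before the viability readout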
[15] = target: T4, Fatty acid synthase; assay: inhibition of human FAS-TE enzyme activity – biochemical, endpoint fluorescence intensity, uHTS hits, dose response (AID 624327); type: functional;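 also: fluorescence from hydrolysis of an O-methyl fluorescein acyl ester substrate by the enzyme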
[16] = test system: HEK293; assay: EBV LMP1 TES2 canonical NF-kB signalling blockers – cell-based, HEK293, luciferase, cherry-pick, dose response (AID 588343); type: functional; details: Homo sapiens
[17] = blockers of HIV-1 envelope-mediated cell-cell fusion – cherry-pick, dose response (AID 652057); type: functional, cell-based
[18] = blockers of HIV-1 ZM109 envelope-driven cell-cell fusion – HeLa effector, CEM target cells, luciferase, cherry-pick, dose response (AID 652058); type: functional, cell-based;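 also: luciferase signal from HIV-1 Env mediated cell-cell fusion of effector and target cells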
[19] = HIV-1 AD8 envelope cell-cell fusion blockers – cherry-pick, dose response (AID 652062); type: functional, cell-based;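 also: luciferase signal from cell-cell fusion driven by HIV-1 clade B AD8 Env; potency is for inhibitors of fusion seen as a drop in luminescence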
[20] = luciferase reporter signal suppression in cells – H4 neuroglioma cells, luminescence, dose response (AID 1990); type: functional, cell-based
[21] = alpha-synuclein stem-loop luciferase translation blockers – H4 neuroglioma cells, luminescence, confirmation (AID 1988); type: functional, cell-based
[22] = Luminescence Cell-Based Dose Response HTS to Identify Inhibitors of 5'UTR Stem-Loop Driven Prion Protein mRNA Translation in H4 Neuroglioblastoma Cells. [Related pubchem assays: 1827 (Project Summary), 1813 (Primary HTS)]; type: functional

CCOC(=O)C1=C(CNC(C)(C)CC(C)(C)C)NC(=O)NC1c1cccc([N+](=O)[O-])c1 (stereo not given)
IC50 [1]: > 50 µM (not active)

O=C(/C=C/c1ccc(Br)cc1)NC(=S)NNC(=O)c1ccco1
EC50 [2]: 0.887 µM (active)
CC50 [3]: > 25 µM (active)
EC50 [4]: 0.343 µM (active)

COc1cc(C#Cc2c(-c3cncn3C)n(C)c3ccc(-c4cnc(N5CCOCC5)nc4)cc23)cc(OC)c1
CC50 [5]: 29.3 µM (active)

O=C(NCc1cccnc1)C1CCC(CNS(=O)(=O)c2ccc(Cl)cc2)CC1 (stereo not given)
IC50 [1]: 2.58 µM (not active)

OCCCNCc1ccc(N(c2ccccc2)c2ccccc2)cc1
CC50 [3]: > 25 µM (active)

COc1ccc(N(C(=O)c2snc(C(N)=O)c2N)C(C(=O)NC2CCCC2)c2cccs2)cc1OC (stereo not given)
IC50 [6]: > 20 µM (inactive)

S=C(Nc1ccc(Nc2ccccc2)cc1)Nc1ccccn1
IC50 [7]: > 66 µM (inactive)
CC50 [5]: > 40 µM (active)
AC50 [8]: 6.34 µM (active)
IC50 [9]: > 66 µM (inactive)

Cc1c(CCOC(=O)CC23CC4CC(CC(C4)C2)C3)sc[n+]1CC(=O)c1ccccc1
IC50 [6]: > 20 µM (inactive)

C=C(CN(C)C)C(=O)c1ccc(C)cc1C
AC50 [10]: 18.5 µM (active)
AC50 [11]: 0.77 µM (active)
AC50 [12]: 5.15 µM (active)

Cc1ccc(S(=O)(=O)Nc2cccc(-c3ccc4nncn4n3)c2)cc1
IC50 [13]: 21.3 µM (inactive)
IC50 [14]: > 80 µM (inactive)
IC50 [15]: 15.7 µM (active)

COc1ccccc1-c1sc2cc3c(cc2c1-c1ccc(OCCN2CCCCC2)cc1)OCO3
IC50 [6]: > 20 µM (inactive)

CC(C)=CCC/C(C)=C/CNC(=O)C[C@H]1C[C@H](C(=O)N(C(C)C)C(C)C)[C@@]2(C)c3[nH]c4cc(CCC(=O)N(C)C)ccc4c3CCN2C1=O
AC50 [11]: 2.05 µM (active)
AC50 [12]: 11.9 µM (active)

CCOc1ccc(CCN2C(=S)N([C@@H](CC(C)C)CN3CCCC3CN3C(=S)NC[C@@H]3Cc3ccc(O)cc3)C[C@@H]2Cc2ccc(O)cc2)cc1 (stereo not given in full)
AC50 [10]: 53.9 µM (active)
AC50 [11]: 11.5 µM (active)
AC50 [12]: 6.52 µM (active)

O=C1C=C(c2ccc3ncccc3c2)C[C@@H](c2ccc3c(c2)OCO3)C1
IC50 [14]: > 80 µM (inactive)

CC1CCCN(CCCNC(=O)c2ccc3c(c2)N(Cc2cccc(Cl)c2)C(=O)c2ccccc2[S+]3[O-])C1 (stereo not given)
CC50 [3]: > 25 µM (active)

O=C(NN=Cc1ccc(N(CCCl)CCCl)cc1)c1cccnc1
AC50 [16]: 1.08 µM (active)

Cc1ccc(Nc2nc(NCC3CC3)nc3ccsc23)c(C)c1
AC50 [10]: > 70 µM (inactive)
AC50 [11]: 5.82 µM (active)
AC50 [12]: 19.4 µM (active)

O=C(O)c1ccc(N/N=C/c2cc3cc4c(cc3nc2Cl)OCCO4)cc1
AC50 [16]: 1.69 µM (active)

C[C@@H]1CN([C@H](C)CO)C(=O)c2cccc(NS(=O)(=O)c3cccs3)c2O[C@@H]1CN(C)Cc1ccc(Cl)c(Cl)c1
AC50 [17]: 0.444 µM (active)
AC50 [18]: 0.952 µM (active)
AC50 [19]: 2.53 µM (active)

COc1ccc2cc(C(N)=O)/c(=N\NC(=O)c3ccccc3)oc2c1
EC50 [20]: 9.51 µM (inconclusive)
EC50 [21]: 7.7 µM (active)
EC50 [22]: 8.54 µM (active)
AC50 [16]: 2.83 µM (active)

CC(=O)O[C@H]1C(=O)[C@]2(C)[C@H]([C@H](OC(=O)c3ccccc3)[C@]3(O)C[C@H](OC(=O)[C@H](O)[C@@H](NC(=O)c4ccccc4)c4ccccc4)C(C)=C1C3(C)C)[C@]1(OC(C)=O)CO[C@@H]1C[C@@H]2O
IC50 [14]: > 80 µM (inactive)
